This note sets out measurements from ChEMBL document CHEMBL4321837, “Discovery of Potent and Orally Effective Dual Janus Kinase 2/FLT3 Inhibitors for the Treatment of Acute Myelogenous Leukemia and Myeloproliferative Neoplasms” (J Med Chem, 2019).

Active and inactive are the calls of the source. No cut-off for these calls is given here.

Data set [1] deals with MV4-11. Kind of data set: Antitumor activity against FLT3-ITD positive human MV4-11 cells xenografted in NOD/SCID mouse assessed as tumor growth inhibition at 60 mg/kg, po qd for 14 days measured every 2 days for 14 days by caliper method relative to control. As to conditions: MV4-11, po, read-out: TGI. The format is functional.
Data set [2] has as its system MV4-11. Kind of data set: Induction of apoptosis in human MV4-11 cells assessed as late apoptotic cells at 1.6 uM after 24 hrs by Annexin V FITC/PI staining based flow cytometry analysis (reference value: 1.38%). The class given is functional.
Data set [3] can be described thus: Half life in human liver microsomes. The format is ADME, Microsome. On the technique in general: Microsomes from liver hold many membrane-bound enzymes, among them those of drug oxidation.
In data set [4] the test system is MV4-11. Kind of data set: Inhibition of JAK2/FLT3 ITD mutant in human MV4-11 cells assessed as reduction in FLT3 phosphorylation after 2 hrs by Western blot analysis. The class given is cell-based.
The test system of data set [5] is MV4-11. Nature of the data set: Induction of cell cycle arrest in human MV4-11 cells assessed as accumulation at S phase at 0.05 uM after 24 hrs by propidium iodide staining based flow cytometry analysis (reference value: 30.11%). The class given is functional. A general note: Flow cytometry measures light scatter and fluorescence of single cells or particles in a stream.

For a further data set, the system named is MDA-MB-453. Kind of data set: Antiproliferative activity against human MDA-MB-453 cells assessed as reduction in cell growth after 72 hrs by MTT assay. The class given is functional, cell-based. In general terms: Tetrazolium dyes change colour on reduction, which living cells bring about.
In data set [6] the test system is MV4-11. Nature of the data set: Induction of apoptosis in human MV4-11 cells assessed as early apoptotic cells at 0.8 uM after 24 hrs by Annexin V FITC/PI staining based flow cytometry analysis (reference value: 2.14%). The format is functional.
Data set [7] in a line: Half life in mouse liver microsomes. The format is ADME, Microsome.
Data set [8] has as its system MV4-11. Nature of the data set: Induction of cell cycle arrest in human MV4-11 cells assessed as accumulation at G0/G1 phase at 0.05 uM after 24 hrs by propidium iodide staining based flow cytometry analysis (reference value: 54.49%). The format is functional.
A short description of data set [9]: Oral bioavailability in Sprague-Dawley rat at 5 mg/kg measured up to 24 hrs by LC/MS/MS analysis. The format is ADME, organism-based. As to conditions: in vivo.
The target of a further data set is CDK4/Cyclin D3 (Homo sapiens, UniProt P11802). Nature of the data set: Inhibition of recombinant full length human CDK4/CyclinD3 using Rb fragment as substrate incubated for 30 mins in presence of [gamma33P]-ATP by scintillation counting based radiometry assay. The format is protein-complex assay.
In data set [10] the test system is MV4-11. Nature of the data set: Induction of apoptosis in human MV4-11 cells assessed as viable cells at 0.8 uM after 24 hrs by Annexin V FITC/PI staining based flow cytometry analysis (reference value: 96.3%). The format is functional. The following applies: MV4-11, 24 h, read-out: Activity.
The target of data set [11] is T1, Tyrosine-protein kinase JAK3 (Homo sapiens) (UniProt P52333).
T1 sequence (whole entry): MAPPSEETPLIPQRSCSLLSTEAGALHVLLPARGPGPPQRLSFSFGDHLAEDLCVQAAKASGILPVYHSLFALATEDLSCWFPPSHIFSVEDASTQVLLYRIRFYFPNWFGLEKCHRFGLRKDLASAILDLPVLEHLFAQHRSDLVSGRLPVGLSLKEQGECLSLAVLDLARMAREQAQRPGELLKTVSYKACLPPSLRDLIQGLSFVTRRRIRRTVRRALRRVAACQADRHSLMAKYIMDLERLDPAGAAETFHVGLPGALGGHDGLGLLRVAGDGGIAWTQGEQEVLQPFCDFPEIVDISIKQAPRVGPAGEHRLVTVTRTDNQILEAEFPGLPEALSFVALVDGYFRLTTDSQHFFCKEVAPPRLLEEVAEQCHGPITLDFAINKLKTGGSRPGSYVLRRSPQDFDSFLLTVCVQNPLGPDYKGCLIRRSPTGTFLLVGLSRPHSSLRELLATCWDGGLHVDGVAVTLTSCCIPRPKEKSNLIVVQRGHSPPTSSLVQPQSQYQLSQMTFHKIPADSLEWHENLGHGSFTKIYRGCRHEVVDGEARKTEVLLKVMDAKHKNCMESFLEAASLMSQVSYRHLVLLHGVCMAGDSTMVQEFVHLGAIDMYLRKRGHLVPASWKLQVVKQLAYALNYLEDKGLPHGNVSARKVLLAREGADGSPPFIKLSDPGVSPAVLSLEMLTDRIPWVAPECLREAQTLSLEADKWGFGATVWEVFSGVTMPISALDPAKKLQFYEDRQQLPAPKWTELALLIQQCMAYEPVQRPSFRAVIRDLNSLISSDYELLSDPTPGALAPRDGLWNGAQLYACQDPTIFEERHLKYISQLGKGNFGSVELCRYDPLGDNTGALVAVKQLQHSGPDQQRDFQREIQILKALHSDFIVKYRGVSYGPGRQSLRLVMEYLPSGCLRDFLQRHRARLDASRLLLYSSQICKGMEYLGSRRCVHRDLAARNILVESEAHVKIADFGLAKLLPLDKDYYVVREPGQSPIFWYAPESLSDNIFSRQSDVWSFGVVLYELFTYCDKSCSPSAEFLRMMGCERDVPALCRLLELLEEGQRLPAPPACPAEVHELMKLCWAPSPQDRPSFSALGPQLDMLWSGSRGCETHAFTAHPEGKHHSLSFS
Nature of the data set: Inhibition of human JAK3 (781 to end residues) assessed as residual activity at 100 nM using GGEEEEYFELVKK as substrate after 40 mins in presence of [gamma33P]-ATP by scintillation counting based radiometric assay relative to control.

For data set [12], the system named is MV4-11. Nature of the data set: Induction of cell cycle arrest in human MV4-11 cells assessed as accumulation at G0/G1 phase at 0.1 uM after 24 hrs by propidium iodide staining based flow cytometry analysis (reference value: 54.49%). The format is functional.
A short description of data set [13]: Intrinsic clearance in dog liver microsomes. The format is ADME, Canis lupus familiaris, Microsome.
The next data set has as its system SET-2. Nature of the data set: Antiproliferative activity against human SET2 cells overexpressing JAK2 […] mutant assessed as reduction in cell growth after 72 hrs by MTT assay. The format is functional, cell-based. As to conditions: SET-2, 72 h.
For data set [14], the target named is Receptor-type tyrosine-protein kinase FLT3 (Homo sapiens) (UniProt P36888). Kind of data set: Inhibition of human FLT3 (564 to end residues) assessed as residual activity at 100 nM using EAIYAAPFAKKK as substrate after 40 mins in presence of [gamma33P]-ATP by scintillation counting based radiometric assay relative to control.
Data set [15] can be described thus: Toxicity in NOD/SCID mouse xenografted with FLT3-ITD-positive human MV4-11 cells assessed as animal survival at 30 to 60 mg/kg, po qd for 14 days. The format is organism-based. As to conditions: in vivo.
The nature of data set [16]: Toxicity in NOD/SCID mouse xenografted with human SET2 cells overexpressing JAK2 V617F mutant assessed as body weight at 30 to 60 mg/kg, po qd for 18 days. The class given is organism-based. As to conditions: in vivo, 432 h.
The nature of data set [17]: Intrinsic clearance in mouse liver microsomes. The format is ADME, Microsome.
Data set [18] in a line: Half life in rat liver microsomes. The class given is ADME, Microsome.
Data set [19] deals with Tyrosine-protein kinase JAK1 (Homo sapiens, UniProt P23458). Kind of data set: Inhibition of human JAK1 (866 to end residues) assessed as residual activity at 100 nM using GEEPLYWSFPAKK as substrate after 40 mins in presence of [gamma33P]-ATP by scintillation counting based radiometric assay relative to control.
Another data set concerns the target Cytochrome P450 1A2 (Homo sapiens, UniProt P05177). Nature of the data set: Inhibition of CYP1A2 (unknown origin). The format is ADME.
Data set [20] relates to MV4-11. Nature of the data set: Induction of apoptosis in human MV4-11 cells assessed as early apoptotic cells at 1.6 uM after 24 hrs by Annexin V FITC/PI staining based flow cytometry analysis (reference value: 2.14%). The class given is functional.

Chain of Receptor-type tyrosine-protein kinase FLT3 (Homo sapiens) (P36888 whole entry): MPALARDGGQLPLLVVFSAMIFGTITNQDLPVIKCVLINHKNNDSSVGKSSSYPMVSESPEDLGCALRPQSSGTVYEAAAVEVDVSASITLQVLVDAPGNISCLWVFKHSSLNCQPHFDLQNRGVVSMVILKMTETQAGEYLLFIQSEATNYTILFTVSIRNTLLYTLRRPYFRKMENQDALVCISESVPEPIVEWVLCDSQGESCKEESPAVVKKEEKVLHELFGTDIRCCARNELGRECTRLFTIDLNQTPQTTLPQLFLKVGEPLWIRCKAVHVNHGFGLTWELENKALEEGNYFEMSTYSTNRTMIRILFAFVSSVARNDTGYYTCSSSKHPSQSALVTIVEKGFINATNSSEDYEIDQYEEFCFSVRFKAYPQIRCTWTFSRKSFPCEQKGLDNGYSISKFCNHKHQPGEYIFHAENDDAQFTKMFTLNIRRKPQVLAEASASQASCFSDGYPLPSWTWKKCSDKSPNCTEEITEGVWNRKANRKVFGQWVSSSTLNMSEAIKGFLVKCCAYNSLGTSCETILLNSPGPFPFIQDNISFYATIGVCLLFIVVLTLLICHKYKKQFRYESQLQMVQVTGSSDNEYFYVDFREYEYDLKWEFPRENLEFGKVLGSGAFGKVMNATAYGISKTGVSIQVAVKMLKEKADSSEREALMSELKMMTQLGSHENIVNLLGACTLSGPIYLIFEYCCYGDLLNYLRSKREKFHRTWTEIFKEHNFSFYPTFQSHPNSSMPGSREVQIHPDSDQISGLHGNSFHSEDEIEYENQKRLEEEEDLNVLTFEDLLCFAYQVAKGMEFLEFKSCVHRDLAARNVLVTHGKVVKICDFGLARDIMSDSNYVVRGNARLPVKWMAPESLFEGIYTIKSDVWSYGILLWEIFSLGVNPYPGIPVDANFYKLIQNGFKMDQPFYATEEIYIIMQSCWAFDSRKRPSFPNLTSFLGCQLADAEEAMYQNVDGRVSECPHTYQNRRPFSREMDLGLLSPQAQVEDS
Chain of Cytochrome P450 1A2 (P05177 whole entry): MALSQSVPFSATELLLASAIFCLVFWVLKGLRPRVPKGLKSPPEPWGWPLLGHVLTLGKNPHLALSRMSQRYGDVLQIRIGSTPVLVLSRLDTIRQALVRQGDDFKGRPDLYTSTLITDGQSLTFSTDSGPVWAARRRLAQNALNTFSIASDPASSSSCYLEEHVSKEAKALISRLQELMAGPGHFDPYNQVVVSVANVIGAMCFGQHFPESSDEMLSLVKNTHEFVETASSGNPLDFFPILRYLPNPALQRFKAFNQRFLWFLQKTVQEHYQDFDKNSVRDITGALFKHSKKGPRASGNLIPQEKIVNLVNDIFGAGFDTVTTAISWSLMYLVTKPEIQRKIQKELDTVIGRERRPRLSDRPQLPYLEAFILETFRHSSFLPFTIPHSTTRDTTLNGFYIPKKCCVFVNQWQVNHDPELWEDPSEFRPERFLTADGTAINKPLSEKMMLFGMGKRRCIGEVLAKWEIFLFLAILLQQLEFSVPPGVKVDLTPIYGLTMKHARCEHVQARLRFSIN
Chain of Tyrosine-protein kinase JAK1 (P23458 whole entry): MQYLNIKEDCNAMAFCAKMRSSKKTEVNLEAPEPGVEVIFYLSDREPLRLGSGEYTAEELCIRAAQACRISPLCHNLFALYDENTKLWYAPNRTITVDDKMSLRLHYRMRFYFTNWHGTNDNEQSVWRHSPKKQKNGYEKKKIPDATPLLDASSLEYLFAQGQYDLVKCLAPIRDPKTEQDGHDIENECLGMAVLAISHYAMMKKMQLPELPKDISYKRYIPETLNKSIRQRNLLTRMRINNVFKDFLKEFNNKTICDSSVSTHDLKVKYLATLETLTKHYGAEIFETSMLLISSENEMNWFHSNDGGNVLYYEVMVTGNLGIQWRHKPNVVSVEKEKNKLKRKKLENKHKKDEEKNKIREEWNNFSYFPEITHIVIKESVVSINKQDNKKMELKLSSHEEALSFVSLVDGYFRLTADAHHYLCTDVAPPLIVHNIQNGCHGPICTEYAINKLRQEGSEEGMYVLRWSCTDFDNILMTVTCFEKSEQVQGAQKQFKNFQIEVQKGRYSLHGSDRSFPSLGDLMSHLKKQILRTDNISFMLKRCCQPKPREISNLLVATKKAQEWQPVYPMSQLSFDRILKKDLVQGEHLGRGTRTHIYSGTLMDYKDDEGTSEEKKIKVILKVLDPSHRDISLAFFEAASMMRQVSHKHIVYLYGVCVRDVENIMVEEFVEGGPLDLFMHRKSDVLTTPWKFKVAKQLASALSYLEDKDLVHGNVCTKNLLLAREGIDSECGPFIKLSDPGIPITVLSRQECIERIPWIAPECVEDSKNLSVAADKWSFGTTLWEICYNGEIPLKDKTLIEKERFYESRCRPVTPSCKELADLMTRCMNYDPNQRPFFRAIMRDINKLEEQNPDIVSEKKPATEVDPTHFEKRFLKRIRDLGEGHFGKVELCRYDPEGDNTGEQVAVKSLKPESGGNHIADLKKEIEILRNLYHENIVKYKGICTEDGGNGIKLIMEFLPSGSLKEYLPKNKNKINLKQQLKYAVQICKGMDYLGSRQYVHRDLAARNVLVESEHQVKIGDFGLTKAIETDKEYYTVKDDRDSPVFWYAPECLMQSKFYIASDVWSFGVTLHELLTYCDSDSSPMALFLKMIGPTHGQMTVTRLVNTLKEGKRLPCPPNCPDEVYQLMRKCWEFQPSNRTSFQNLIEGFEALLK
Chain of CDK4/Cyclin D3 (P11802 whole entry, the tested form may be a part): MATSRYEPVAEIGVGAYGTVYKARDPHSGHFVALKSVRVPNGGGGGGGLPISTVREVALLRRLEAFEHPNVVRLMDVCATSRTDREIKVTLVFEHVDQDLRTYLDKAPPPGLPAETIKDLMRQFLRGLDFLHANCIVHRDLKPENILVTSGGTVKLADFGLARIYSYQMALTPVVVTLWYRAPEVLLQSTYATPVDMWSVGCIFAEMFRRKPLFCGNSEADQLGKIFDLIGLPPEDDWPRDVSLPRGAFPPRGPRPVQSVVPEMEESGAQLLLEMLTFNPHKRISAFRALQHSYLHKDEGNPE
Chain of CDK4/Cyclin D3 (P30281 whole entry, further chain, the tested form may be a part): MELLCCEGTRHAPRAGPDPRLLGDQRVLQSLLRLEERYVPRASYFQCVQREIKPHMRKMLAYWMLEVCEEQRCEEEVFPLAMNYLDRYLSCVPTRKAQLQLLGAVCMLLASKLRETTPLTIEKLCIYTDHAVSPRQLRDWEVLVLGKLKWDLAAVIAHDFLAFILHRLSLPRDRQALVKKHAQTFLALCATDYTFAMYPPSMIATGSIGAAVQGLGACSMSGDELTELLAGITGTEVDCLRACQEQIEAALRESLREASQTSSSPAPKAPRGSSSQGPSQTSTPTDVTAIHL

As for `Cc1cnc(Nc2ccc(N3CCC(N(C)CCO)CC3)c(F)c2)nc1-c1cnn(C(C)C)c1`, in the data set on MV4-11 [1], the inhibition in vivo at 60 mg/kg was determined as 93%. For the same compound, the Activity in the data set on MV4-11 [2] came out at 40.9%; with MV4-11 [5] it was 12.84%; in the data set with MV4-11 [6], 23.4%; with MV4-11 [8] it was 81.64%; in data set [11] it was 36%; with MV4-11 [12] it was 84.71%. Further, the Activity in data set [14] was 4%; in data set [16] it was “Non-Toxic”; in data set [19] it was 25%; in the data set on MV4-11 [20], 33.6%. Also, the half-life in data set [3] was 4.81 h; in data set [7] it was 6.42 h; in data set [18], 12.8 h. Besides, the inhibition entry with MV4-11 [4] was “Dose-dependent effect”. In addition, the result in the data set on MDA-MB-453 was Active. In addition, the bioavailability in [9] came out at 58%. Besides, the figures for the 50% inhibitory concentration (IC50) on CDK4/Cyclin D3, in the data set on SET-2 and against Cytochrome P450 1A2 were 0.018 µM, 0.27 µM and 64.4 µM, respectively. Moreover, the viability at 0.8 µM with MV4-11 [10] turned out to be 46.4%. Moreover, the CLH in data set [13] was 3.7 µL/min/mg; in [17], 1.8 µL/min/mg. Besides, the survival at 336 h in data set [15] is 100%.

Usually half-life stands for the time in which the quantity being followed falls by half. Lower therefore signals rapid decline. As usually defined, the bioavailability is the share of a dose that reaches the circulation, judged against a reference dose that is usually intravenous. A higher bioavailability goes with good availability. In general, IC50 refers to the concentration at which inhibition is half-maximal.
